Assay results from ChEMBL document CHEMBL1152829, “2,3-Disubstituted 8-arylamino-3H-imidazo[4,5-g]quinazolines: a novel class of antitumor agents” (Eur J Med Chem, 2009).
pIC50: −log10 of the molar value.

What was measured:
K562 = assay: Cytotoxicity against human K562 cells after 96 hrs by MTT assay; assay type: functional, cell-based; settings: K562, 96 h
PC-3 = assay: Cytotoxicity against human PC3 cells after 96 hrs by MTT assay; assay type: functional, cell-based; settings: PC-3, 96 h
MOLT-4 = assay: Cytotoxicity against human MOLT4 cells after 96 hrs by MTT assay; assay type: functional, cell-based; settings: MOLT-4, 96 h
A549 = assay: Cytotoxicity against human A549 cells after 96 hrs by MTT assay; assay type: functional, cell-based; settings: A549, 96 h
MDA-MB-231 = assay: Cytotoxicity against human MDA-MB-231 cells after 96 hrs by MTT assay; assay type: functional, cell-based; settings: MDA-MB-231, 96 h
A549 (Homo sapiens) [1] = assay: Cell cycle arrest in human A549 cells assessed as accumulation at S phase at 10 umol/L after 24 hrs by FACS relative to untreated control
A549 (Homo sapiens) [2] = assay: Cell cycle arrest in human A549 cells assessed as accumulation at G0/G1 phase at 10 umol/L after 24 hrs by FACS relative to untreated control
A549 (Homo sapiens) [3] = assay: Cell cycle arrest in human A549 cells assessed as accumulation at G2/M phase at 10 umol/L after 24 hrs by FACS relative to untreated control

| SMILES | pIC50 (K562) | pIC50 (PC-3) | pIC50 (MOLT-4) | pIC50 (A549) | pIC50 (MDA-MB-231) | percent of cells in S phase (A549 (Homo sapiens) [1]) | Activity (A549 (Homo sapiens) [2]) | Percentage of cells in G2/M phase (A549 (Homo sapiens) [3]) |
| --- | --- | --- | --- | --- | --- | --- | --- | --- |
| CCCc1nc2cc3c(Nc4ccc(OC)c(OC)c4)ncnc3cc2n1CCCOC | 4.84 | 4.61 | 4.96 | 4.94 | 4.69 |  |  |  |
| CCCCCCc1nc2cc3c(Nc4ccc(OC)cc4)ncnc3cc2n1CCCOCC | 4.39 | < 4.00 | < 4.00 | 4.41 | < 4.00 |  |  |  |
| CCOCCCn1c(Cc2ccccc2)nc2cc3c(Nc4ccc(OC)cc4)ncnc3cc21 | 4.89 | < 4.00 | < 4.00 | 4.66 | 4.81 |  |  |  |
| COc1ccc(Nc2ncnc3cc4c(cc23)nc(C(C)C)n4C(C)C)cc1 | < 4.00 | < 4.00 | < 4.00 | 5.20 | 4.45 |  |  |  |
| CCOCCCn1c(CC(C)C)nc2cc3c(Nc4ccc(OC)cc4)ncnc3cc21 | 4.84 | < 4.00 | < 4.00 | 5.55 | < 4.00 | 15.41% | 81.47% | 3.12% |
| CCCCn1c(C(C)C)nc2cc3c(Nc4ccc(OC)c(OC)c4)ncnc3cc21 | 4.73 | < 4.00 | 5.18 | 5.25 | 4.70 |  |  |  |
| CCCCn1c(C(C)C)nc2cc3c(Nc4ccc(C)cc4)ncnc3cc21 | < 4.00 | 4.61 | < 4.00 | 4.92 | 4.97 |  |  |  |
| COCCCn1c(C(C)C)nc2cc3c(Nc4ccc(OC)cc4)ncnc3cc21 | < 4.00 | < 4.00 | < 4.00 | 4.80 | < 4.00 |  |  |  |
| CCCCn1c(C(C)C)nc2cc3c(Nc4ccc(F)cc4)ncnc3cc21 | 5.26 | 5.01 | 4.94 | 5.37 | 4.70 | 10.73% | 86.28% | 2.99% |
| CCCc1nc2cc3c(Nc4ccc(OC)cc4)ncnc3cc2n1CCCOCC | < 4.00 | < 4.00 | < 4.00 | 4.74 | < 4.00 |  |  |  |
| COc1ccc(Nc2ncnc3cc4c(cc23)nc(C(C)C)n4C2CCCCC2)cc1 | 4.71 | 4.64 | 5.11 | 5.14 | 4.68 |  |  |  |
| CCCCn1c(C(C)C)nc2cc3c(Nc4ccc(OC)cc4)ncnc3cc21 | < 4.00 | 4.72 | 4.94 | 5.08 | < 4.00 |  |  |  |
| CCOCCCn1c(C(C)C)nc2cc3c(Nc4ccc(OC)cc4)ncnc3cc21 | 5.29 | < 4.00 | < 4.00 | 5.34 | < 4.00 | 16.22% | 80.38% | 3.4% |
| CC(C)c1nc2cc3c(Nc4ccccc4)ncnc3cc2n1C1CCCCC1 | 4.76 | 4.61 | 5.55 | 4.66 | < 4.00 |  |  |  |
| CCOCCCn1c(CC)nc2cc3c(Nc4ccc(OC)cc4)ncnc3cc21 | < 4.00 | < 4.00 | < 4.00 | 5.22 | < 4.00 |  |  |  |
| COc1cc2ncnc(Nc3ccc(F)c(Cl)c3)c2cc1OCCCN1CCOCC1 [GEFITINIB] |  |  |  |  |  | 19.24% | 76.12% | 4.64% |
